PubChem BioAssay AID2060899 (Molecular Pharmacology Branch, DTP, NCI, 2025)

System: 565726-208-R1-J5-PDC complex spheroids, growth inhibition
Assay: Anticancer human tumor 565726-208-R1-J5-PDC patient-derived pancreatic adenocarcinoma cell line growth inhibition [RAS]
Conditions: for IC50: curve of first compound; for viability, T/C: stronger effect = lower value
From the text: RAS pathway inhibitors in Combinations in Complex Spheroids
A high-throughput screen of multi-cell type tumor spheroids was designed to identify active combinations of RAS pathway inhibitors and targeted small molecules. Complex spheroids include a stromal component modeled by human endothelial cells (HUVEC) and fibroblasts modeled by human mesenchymal stem cells (MSCs). The concentration ranges selected for each drug and investigational agent were based upon clinically achievable concentrations if the clinical Cmax of the agent was known.
Compounds. The drugs and investigational agents: abemaciclib (NSC768073), cobimetinib (NSC768068), divarasib (GDC6063, NSC841802), docetaxel (NSC628503), GDC-1971 (RLY-1971, NSC841576), gemcitabine (NSC613327), inavolisib (NSC800729), ipatasertib (NSC767898), KB-0742 (NSC834161), MRTX-1133 (NSC836407), osimertinib (NSC779217), RMC-4630 (NSC839698), RMC-6236 (NSC851965), RMC-6291 (NSC852671), Ro-3306 (NSC812927), sapanisertib (NSC764658), SN-38 (NSC673596), staurosporine (NSC755774), SY5609 (NSC837396), and tovorafenib (DAY101, NSC766906), were obtained from the National Cancer Institute (NCI) Developmental Therapeutics Program Chemical Repository. The FDA-approved anticancer drug set is available from the NCI Developmental Therapeutics Program. […] The stock solutions were prepared in dimethyl sulfoxide (DMSO, Sigma-Aldrich, St. Louis, MO, cat. D2650) at 800-fold the tested concentration and stored at -70 degrees C prior to their use. All drugs and investigational agents were tested over a range starting from a high concentration at or near the clinical Cmax and decreasing in half-log increments. If the clinical Cmax for an agent had not been determined, the highest concentration tested was 10 microM.
Cell Culture. All cells were maintained in an incubator at 37 degrees C and 5% CO2 with 95% humidity. The PDC lines were cultured according to standard operating procedures established by the NCI PDMR. All PDCs were thawed and cultured in Matrigel-coated flasks prepared with a working solution of 1X Ham's F-12 nutrient mix, without supplementation (Invitrogen, Waltham, MA, cat. 11765054), 100 U/mL penicillin-streptomycin (Invitrogen, cat. 15140122), and 2.5% Matrigel (Corning Inc., Corning, NY, cat. 354248) for the first three passages. The 362531-283-R-J2-PDC and 782815-120-R-J1-PDC lines were cultured in 6C/Colon 1B media, which includes advanced DMEM/F-12 (Thermo Fisher Scientific, cat. 12634028), 10 mM HEPES (Thermo Fisher Scientific, cat. 15630080), 1X GlutaMAX supplement (Thermo Fisher Scientific, cat. 35050061), 0.1 mg/mL primocin (InvivoGen, San Diego, CA, cat. ant-pm-2), 10% defined fetal bovine serum, heat inactivated (HyClone Laboratories Inc., Logan, UT, cat. SH30070.03HI), 50% L-WRN conditioned media (ATCC, cat. CRL-3276), 1.25 mM N-Acetyl-L-cysteine (Sigma-Aldrich, cat. A9165), 10 mM nicotinamide (Sigma-Aldrich, cat. N0636), 1X B-27 supplement (Thermo Fisher Scientific, cat. 17504044), 1X N-2 supplement (Thermo Fisher Scientific, cat. 17502048), 50 ng/mL human EGF (Thermo Fisher Scientific, cat. PHG0311), and 10 microM Y-27632 dihydrochloride (Tocris Bioscience, cat. 1254). The K12877-001-R-J1-PDC line was cultured in 6I media, which includes all 6C/Colon 1B media plus 10 ng/mL human FGF-10 (PeproTech, cat. 100-26), 1 ng/mL human FGF-2 (PeproTech, cat. 100-18B), 1 µM prostaglandin E2 (Tocris Bioscience, cat. 2296), […] hydrocortisone (Sigma-Aldrich, cat. H4001), and […] bovine insulin (Sigma-Aldrich, cat. I6634). The K86415-001-R-J1-PDC line was cultured in 6D media, which includes all 6C/Colon 1B media components minus the L-WRN conditioned media. The 485176-168-R4-J1-PDC was cultured in PANC media, which includes all 6C/Colon 1B media plus 100 ng/mL human FGF-10 (PeproTech, cat. 100-26), 500 nM SB-431542 (Selleckchem, cat. S1067), and 10 nM gastrin (Tocris Bioscience, cat. 3006). […]

[1] = second compound 0.0316 µM, first compound 0.0316 µM
[2] = second compound 0.0316 µM, first compound 0.1 µM
[3] = second compound 0.0316 µM, first compound 0.316 µM
[4] = second compound 0.0316 µM, first compound 1 µM
[5] = second compound 0.0316 µM, first compound 3.16 µM
[6] = second compound 0.0316 µM, first compound 10 µM
[7] = second compound 0.1 µM, first compound 0.0316 µM
[8] = second compound 0.1 µM, first compound 0.1 µM
[9] = second compound 0.1 µM, first compound 0.316 µM
[10] = second compound 0.1 µM, first compound 1 µM
[11] = second compound 0.1 µM, first compound 3.16 µM
[12] = second compound 0.1 µM, first compound 10 µM
[13] = second compound 0.316 µM, first compound 0.0316 µM
[14] = second compound 0.316 µM, first compound 0.1 µM
[15] = second compound 0.316 µM, first compound 0.316 µM
[16] = second compound 0.316 µM, first compound 1 µM
[17] = second compound 0.316 µM, first compound 3.16 µM
[18] = second compound 0.316 µM, first compound 10 µM
[19] = second compound 1 µM, first compound 0.0316 µM
[20] = second compound 1 µM, first compound 0.1 µM
[21] = second compound 1 µM, first compound 0.316 µM
[22] = second compound 1 µM, first compound 1 µM
[23] = second compound 1 µM, first compound 3.16 µM
[24] = second compound 1 µM, first compound 10 µM
[25] = second compound 3.16 µM, first compound 0.0316 µM
[26] = second compound 3.16 µM, first compound 0.1 µM
[27] = second compound 3.16 µM, first compound 0.316 µM
[28] = second compound 3.16 µM, first compound 1 µM
[29] = second compound 3.16 µM, first compound 3.16 µM
[30] = second compound 3.16 µM, first compound 10 µM
[31] = second compound 10 µM, first compound 0.0316 µM
[32] = second compound 10 µM, first compound 0.1 µM
[33] = second compound 10 µM, first compound 0.316 µM
[34] = second compound 10 µM, first compound 1 µM
[35] = second compound 10 µM, first compound 3.16 µM
[36] = second compound 10 µM, first compound 10 µM
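Also: spheroids exposed to compounds for seven days before readout.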
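For viability, T/C in this document: 100% = DMSO vehicle control viability.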

With `CC1(O)CCCC1n1c(=O)c(C(F)F)cc2cnc(NC3CCN(S(C)(=O)=O)CC3)nc21` (stereo unspecified) + C#Cc1c(F)ccc2cc(O)cc(-c3ncc4c(N5CC6CCC(C5)N6)nc(OCC56CCCN5CC(F)C6)nc4c3F)c12 the IC50 (second compound 0.0316 µM) was 3320 nM, the IC50 (second compound 0.1 µM) was 3290 nM and the IC50 (second compound 0.316 µM) was 3900 nM. The IC50 (second compound 1 µM) was 1540 nM, the IC50 (second compound 3.16 µM) was 1140 nM and the IC50 (second compound 10 µM) was 606 nM. For the same compound, the viability, T/C [1] was 82.3%, the viability, T/C [2] was 87.4% and the viability, T/C [3] was 76.7%. For the same compound, the viability, T/C [4] was 56.2%, the viability, T/C [5] was 62.2% and the viability, T/C [6] was 5.34%. It also gave a viability, T/C [7] of 93.8%, a viability, T/C [8] of 103% and a viability, T/C [9] of 69.9%. The viability, T/C [10] was 65.9%, the viability, T/C [11] was 63.7% and the viability, T/C [12] was 4.76%. It also gave a viability, T/C [13] of 91.6%, a viability, T/C [14] of 95% and a viability, T/C [15] of 75.6%. It also gave a viability, T/C [16] of 66.2%, a viability, T/C [17] of 69% and a viability, T/C [18] of 5.83%. The viability, T/C [19] was 96%, the viability, T/C [20] was 93.9% and the viability, T/C [21] was 59.7%. The viability, T/C [22] was 55%, the viability, T/C [23] was 50.9% and the viability, T/C [24] was 5.01%. It also gave a viability, T/C [25] of 88.4%, a viability, T/C [26] of 81.7% and a viability, T/C [27] of 55.6%. It also gave a viability, T/C [28] of 50%, a viability, T/C [29] of 46.4% and a viability, T/C [30] of 2.99%. For the same compound, the viability, T/C [31] was 78.8%, the viability, T/C [32] was 67.1% and the viability, T/C [33] was 53.1%. It also gave a viability, T/C [34] of 43.9%, a viability, T/C [35] of 32.4% and a viability, T/C [36] of 0.3%.

`CCN1CCN(Cc2ccc(Nc3ncc(F)c(-c4cc(F)c5nc(C)n(C(C)C)c5c4)n3)nc2)CC1` + C#Cc1c(F)ccc2cc(O)cc(-c3ncc4c(N5CC6CCC(C5)N6)nc(OCC56CCCN5CC(F)C6)nc4c3F)c12 showed an IC50 (second compound 0.0316 µM) greater than 1000 nM, an IC50 (second compound 0.1 µM) greater than 1000 nM and an IC50 (second compound 0.316 µM) greater than 1000 nM. It also gave an IC50 (second compound 1 µM) greater than 1000 nM, an IC50 (second compound 3.16 µM) of 92.8 nM and an IC50 (second compound 10 µM) of 61.2 nM. The viability, T/C (second compound 0.0316 µM, first compound 0.00316 µM) was 83.6%, the viability, T/C (second compound 0.0316 µM, first compound 0.01 µM) was 130% and the viability, T/C [1] was 74.6%. For the same compound, the viability, T/C [2] was 79.2%, the viability, T/C [3] was 86.8% and the viability, T/C [4] was 89.1%. For the same compound, the viability, T/C (second compound 0.1 µM, first compound 0.00316 µM) was 109%, the viability, T/C (second compound 0.1 µM, first compound 0.01 µM) was 122% and the viability, T/C [7] was 75.6%. It also gave a viability, T/C [8] of 66.9%, a viability, T/C [9] of 76.5% and a viability, T/C [10] of 101%. The viability, T/C (second compound 0.316 µM, first compound 0.00316 µM) was 116%, the viability, T/C (second compound 0.316 µM, first compound 0.01 µM) was 143% and the viability, T/C [13] was 67.8%. For the same compound, the viability, T/C [14] was 64.1%, the viability, T/C [15] was 77.5% and the viability, T/C [16] was 82.4%. It also gave a viability, T/C (second compound 1 µM, first compound 0.00316 µM) of 127%, a viability, T/C (second compound 1 µM, first compound 0.01 µM) of 115% and a viability, T/C [19] of 87%. The viability, T/C [20] was 61.2%, the viability, T/C [21] was 46.8% and the viability, T/C [22] was 72.5%. The viability, T/C (second compound 3.16 µM, first compound 0.00316 µM) was 99.1%, the viability, T/C (second compound 3.16 µM, first compound 0.01 µM) was 105% and the viability, T/C [25] was 57.6%. For the same compound, the viability, T/C [26] was 56.6%, the viability, T/C [27] was 46.2% and the viability, T/C [28] was 45.6%. For the same compound, the viability, T/C (second compound 10 µM, first compound 0.00316 µM) was 87.7%, the viability, T/C (second compound 10 µM, first compound 0.01 µM) was 78.5% and the viability, T/C [31] was 56.9%. For the same compound, the viability, T/C [32] was 41.4%, the viability, T/C [33] was 44.3% and the viability, T/C [34] was 28.9%.

`C[C@@H](NC(=O)c1ncnc(N)c1Cl)c1ncc(C(=O)Nc2cc(C(F)(F)F)c(Cl)cn2)s1` + C#Cc1c(F)ccc2cc(O)cc(-c3ncc4c(N5CC6CCC(C5)N6)nc(OCC56CCCN5CC(F)C6)nc4c3F)c12 was tested, and the IC50 (second compound 0.0316 µM) was greater than 10000 nM, the IC50 (second compound 0.1 µM) was greater than 10000 nM and the IC50 (second compound 0.316 µM) was greater than 10000 nM. For the same compound, the IC50 (second compound 1 µM) was greater than 10000 nM, the IC50 (second compound 3.16 µM) was greater than 10000 nM and the IC50 (second compound 10 µM) was greater than 10000 nM. The viability, T/C [1] was 114%, the viability, T/C [2] was 167% and the viability, T/C [3] was 121%. The viability, T/C [4] was 102%, the viability, T/C [5] was 135% and the viability, T/C [6] was 129%. For the same compound, the viability, T/C [7] was 122%, the viability, T/C [8] was 166% and the viability, T/C [9] was 107%. The viability, T/C [10] was 108%, the viability, T/C [11] was 116% and the viability, T/C [12] was 127%. It also gave a viability, T/C [13] of 150%, a viability, T/C [14] of 147% and a viability, T/C [15] of 94.9%. For the same compound, the viability, T/C [16] was 110%, the viability, T/C [17] was 95.8% and the viability, T/C [18] was 112%. It also gave a viability, T/C [19] of 134%, a viability, T/C [20] of 135% and a viability, T/C [21] of 92.8%. The viability, T/C [22] was 89.6%, the viability, T/C [23] was 107% and the viability, T/C [24] was 105%. It also gave a viability, T/C [25] of 110%, a viability, T/C [26] of 123% and a viability, T/C [27] of 72.8%. It also gave a viability, T/C [28] of 68.3%, a viability, T/C [29] of 65.4% and a viability, T/C [30] of 102%. The viability, T/C [31] was 100%, the viability, T/C [32] was 102% and the viability, T/C [33] was 68.4%. For the same compound, the viability, T/C [34] was 64.8%, the viability, T/C [35] was 72.2% and the viability, T/C [36] was 72.8%.
